Experimental findings from patent US7960369B2, “Receptor function regulator” (Takeda Pharmaceutical Company Limited, priority 2002, dated 2011) are described below.

Series [1] has as its system siRNA-introduced MIN6 cell. In words: Insulin secretion enhancing activity of fatty acid in siRNA-introduced MIN6. It is filed as cell-based, mouse. As to the method:
(§1) The expression amount of mouse GPR40-GFP was detected by the following enzyme immunoassay. The culture supernatant was discarded, washed with HBSS (Invitrogen), fixed with 0.01% glutaraldehyde (Wako Pure Chemical Industries, Ltd.) for 5 min., and blocked with PBS (TAKARA SHUZO) containing 2% BSA. 500-fold diluted anti-GFP monoclonal antibody 3E6 (NIPPON GENE CO., LTD.) was added and the cells were incubated at room temperature for 2 hrs., washed and 500-fold diluted HRP-labeled anti-mouse IgG antibody (ICN) was added, and the cells were incubated at room temperature for 2 hrs. After washing, TMB microwell peroxydase substrate (Funakoshi) was added and, after incubation for 30 min., sulfuric acid was added to stop the color developing reaction, and the absorbance at 450 nm was measured.
(§2) Mouse pancreatic β cell line MIN6 cultured in a flask was detached with PBS containing 2.5 mM EDTA, and seeded and incubated in a 96 well plate for 2 days. The medium used was obtained by adding 15% fetal bovine serum (ThermoTrace), […] 2-mercaptoethanol (Invitrogen), 20 mM HEPES pH 7.3, 100 U/ml penicillin and 100 μg/ml streptomycin to Dulbecco's Modified Eagle Medium (DMEM, Invitrogen) containing 4.5 g/l of glucose. The cells were washed twice with modified Krebs-Ringer bicarbonate buffer (KRBH, 116 mM NaCl, 4.7 mM KCl, 1.2 mM KH2PO4, 1.2 mM MgSO4, 2.5 mM CaCl2, 25 mM NaHCO3, 24 mM HEPES pH 7.3) and preincubated at 37° C. under 5% CO2 conditions for 30 min. Fatty acid diluted and prepared with a buffer obtained by adding 22 mM glucose to the above-mentioned KRBH was added to the cell after preincubation and the cells were incubated at 37° C. under 5% CO2 conditions for 90 min. After incubation, the cell supernatant was recovered and cryopreserved. The insulin content of the supernatant was measured using a commercially available insulin immunoassay kit (Amersham Pharmacia Biotech).
Insulin secretion enhancing activity in MIN6 cell, into which m40i103 was introduced using HVJ Envelope VECTOR KIT GenomONE based on the method of Experimental Example 5, was examined. The insulin secretion enhancing activity by fatty acid was examined by the method of Experimental Example 6.

For series [2], the system named is mouse GPR40-GFP fused protein. In words: Suppression of expression of mouse GPR40-GFP fused protein by siRNA in CHO cells (enzyme immunoassay). Format: cell-based. To be noted: siRNA 2.86 Pmol/0.5 μl or 8.57 Pmol/1.5 μl introduced into mouse GPR40-GFP expressing CHO cell; absorbance at 450 nm. As to the method: as §1, with “CHO cell expressing fused protein of mouse GPR40 and GFP prepared by a method known per se was seeded in a 96 well plate at 3×10^4/well and incubated for one day. siRNA of various sequences (Dharmacon) (concentration of 2.86 Pmol/0.5 μl or 8.57 Pmol/1.5 μl) prepared using HVJ Envelope VECTOR KIT GenomONE™ ([…] SANGYO) and according to the report of Elbasir et al. (Nature 411 (6836), 494-498 (2001)) was introduced into the cells and the cells were further incubated for one day. The expression” for “The expression”

The subject of series [3] is mouse pancreatic β cell line MIN6. Nature of the series: Promotion of insulin secretion from MIN6 (insulin immunoassay). It is filed as cell-based. The conditions noted are these: MIN6, KRBH with 22 mM glucose, 90 min. As to the method: as §2
as §2, with “(KBH,” for “(KRBH,”, “The compound” for “Fatty acid”

Series [4] deals with mouse insulinoma MIN6 cell. In words: Insulin secretagogue effect of free fatty acid in mouse insulinoma MIN6 cell (RIA). Format: cell-based. To be noted: 300 μM-1000 μM free fatty acid-BSA (4:1), 11 mM glucose, 90 min (or 60 min). On the procedure: Unless otherwise specified, MIN6 cell was incubated in DMEM (high glucose, Invitrogen) containing 15% FCS (Trace Scientific Ltd.), 55 μM 2-mercaptoethanol, 100 U/ml penicillin, and 100 μg/ml streptomycin. Min6 cells were seeded in a 96 well plate at 10^5 cells per well, and incubated at 37° C. for 3 days in a CO2 incubator adjusted to 5% CO2 concentration. The medium was exchanged to RPMI1640 (glucose-free, Invitrogen) containing 10% FCS (Trace Scientific Ltd.), 5.5 mM glucose, 100 U/ml penicillin and 100 μg/ml streptomycin and the cells were further incubated for 24 hrs. The medium was aspirated, free fatty acid-bovine serum albumin (BSA) mixed solution (4:1, molar ratio) diluted with RPMI1640 (glucose-free, Invitrogen) containing 10% FCS (Trace Scientific Ltd.), 11 mM glucose, 100 U/ml penicillin, and 100 μg/ml streptomycin was added to the cells and reacted at 37° C. for 90 min. (or 60 min.) in a CO2 incubator adjusted to 5% CO2 concentration. The 96 well plate after reaction was centrifuged at 1500 rpm for 5 min. and the culture supernatant was recovered. The insulin amount secreted in this culture supernatant liquid was determined by radioimmunoassay (RIA) using a rat insulin RIA system (Amersham Pharmacia Biotech).

The next series concerns the target T1, human-derived GPR40 (Homo sapiens, UniProt O14842).
T1 construct: expressed in transfected cells; host or cells: CHO-K1, transient transfection with lipofectamine
Nature of the series: Reactivity of fatty acid to human-derived GPR40, intracellular calcium by FLIPR in transfected CHO-K1 cells. The conditions noted are these: for activity in intracellular calcium ion mobilization assay using CHO cell expressing GPR40 (GPR40 agonistic activity): as stated in Experimental Example 6. It is filed as cell-based. As to the method: Unless specifically indicated, CHO-K1 cell line was cultured using Ham's F-12 medium (Invitrogen) containing 10% fetal calf serum (Invitrogen). The day before transfection, 4.5×10^5 per 10 cm^2 of cells were seeded, and incubated at 37° C. for not less than 15 hrs in a CO2 incubator adjusted to 5% CO2 concentration. The transfection was performed using a lipofectamine reagent (Invitrogen) and according to the reagent attached method. When a 6-well plate was used for a culture plate, transfection was performed in the following manner. First two 1.5 ml volume tubes were prepared, and 100 μl of Opti-MEM-I medium (Invitrogen) was dispensed. Then, […] of an expression vector was added to one tube and 6 μl of a lipofectamine reagent was added to the other tube. They were mixed and stood still at room temperature for 20 min. A mixed solution for transfection containing this solution and Opti-MEM-I medium (800 μl) was added to CHO-K1 cell previously washed with Opti-MEM-I medium, and incubated in a CO2 incubator for 6 hrs. The incubated cells were rinsed with PBS (Invitrogen), detached with 0.05% trypsin-EDTA solution (Invitrogen), recovered by centrifugation. The obtained cells were counted, diluted such that 5×10^4 cells were contained per 200 μl of the medium, dispensed to black walled 96-well plate (Costar) at 200 μl per well, incubated overnight in a CO2 incubator. Various test samples were added to CHO-K1 cells transiently expressing the receptor by the above-mentioned transfection step, and changes in the intracellular calcium concentration then was measured using FLIPR (Molecular Device). For measurement of changes in intracellular calcium concentration by FLIPR, the following pretreatment was applied. First, an assay buffer for adding fluorescence dye Fluo-3AM (DOJIN) to the cell, or washing the cell immediately before FLIPR assay was prepared. To a solution (hereinafter HBSS/HEPES solution) obtained by adding 20 ml of 1M HEPES (pH 7.4) (DOJIN) to 1000 ml of HBSS (Invitrogen) was added a solution (10 ml) obtained by dissolving probenecid (710 mg, Sigma) in 1N NaOH (5 ml) and adding and mixing with HBSS/HEPES solution (5 ml) and the obtained solution was used as an assay buffer. Then, Fluo-3AM (50 μg) was dissolved in 21 μl of DMSO (DOJIN), and an equal amount of 20% pluronic acid (Molecular Probes) was added. The mixture was added to an assay buffer (10.6 ml) supplemented with 105 μl of fetal calf serum to give a fluorescence dye solution. The medium of the CHO-KL cell after transfection treatment was removed, a fluorescence dye solution was immediately dispensed at 100 μl per well and incubated in a CO2 incubator for 1 hr to incorporate the fluorescence dye into the cell. The incubated cells were washed with the above-mentioned assay buffer and set on FLIPR. The test sample to be added to receptor expressing CHO-KL cell was prepared using the assay buffer and simultaneously set on FLIPR. After the above-mentioned pretreatment, changes in the intracellular calcium concentration after addition of various test samples were measured by FLIPR.
A general note: A change in cytosolic calcium serves as a functional read-out for many receptors and channels.

T1 sequence (O14842 whole entry): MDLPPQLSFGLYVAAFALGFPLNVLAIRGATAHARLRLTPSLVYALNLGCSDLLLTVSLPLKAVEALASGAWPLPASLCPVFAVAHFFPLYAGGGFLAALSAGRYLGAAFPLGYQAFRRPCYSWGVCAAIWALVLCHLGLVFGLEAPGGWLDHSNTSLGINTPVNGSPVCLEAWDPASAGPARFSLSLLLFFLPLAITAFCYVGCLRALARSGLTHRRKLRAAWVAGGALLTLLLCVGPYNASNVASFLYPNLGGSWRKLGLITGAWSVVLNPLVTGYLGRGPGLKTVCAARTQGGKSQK

Regarding “m40i103: "a mouse GPR40 specific siRNA (sense strand is SEQ ID NO: 23, antisense strand is SEQ ID NO: 24)" (sense CGCCAGUUGUGACAUUCUUTT; antisense TTGCGGUCAACACUGUAAGAA; chemistry not given here; one strand is listed 3' to 5')”, the “effect of siRNA introduction on insulin secretion enhancing activity by linoleic acid and γ-linolenic acid” value in series [1] (siRNA introduced into MIN6 with HVJ Envelope VECTOR KIT GenomONE) is recorded as “no longer showed insulin secretion enhancing activity”. Besides, the “mouse GPR40-GFP expression amount” value in series [2] was “lower GPR40-GFP expression amount”.

Regarding `CCCCCCCC/C=C\CCCCCCCC(=O)O` [oleic acid], the “insulin secretion enhancing activity” value in series [3] is “significant insulin secretion enhancing activity”. The “insulin secretion by MIN6 cell” value in series [4] was “promoted”. Besides, the “response (increase in intracellular calcium concentration) of CHO-K1 cell expressing the GPR40 receptor” value at human-derived GPR40 (added at 10^−5M-10^−6M, FLIPR, control-vector cells showed no response) is listed as “specifically responds”. Moreover, the “activity in intracellular calcium ion mobilization assay using CHO cell expressing GPR40 (GPR40 agonistic activity)” value on human-derived GPR40 is “remarkable activity”.

As to `CCCCC/C=C\C/C=C\C/C=C\CCCCC(=O)O` [γ-linolenic acid], the “insulin secretion enhancing activity of fatty acid” value was “no longer showed insulin secretion enhancing activity” in series [1] (MIN6 into which GPR40 specific siRNA m40i103 was introduced) and “retention of the insulin secretion enhancing activity” in series [1] (MIN6 into which random sequence Scramble II duplex siRNA was introduced). Also, the “insulin secretion enhancing activity” value in series [3] is given as “significant insulin secretion enhancing activity”. The “insulin secretion by MIN6 cell” value in series [4] is “promoted”. Also, at human-derived GPR40, the “activity in intracellular calcium ion mobilization assay using CHO cell expressing GPR40 (GPR40 agonistic activity)” value was “remarkable activity”.

Take `CCCCCCCCCCCCCCCC(=O)O` [palmitic acid]: the “insulin secretion by MIN6 cell” value in series [4] is given as “promoted”.

Consider “m40i256: mouse GPR40 specific siRNA "(sense strand is SEQ ID NO: 25, antisense strand is SEQ ID NO: 26)" (sense CUUGUUAGCCAUCCGAGGCTT; antisense TTGAACAATCGGTAGGCTCCG; chemistry not given here; one strand is listed 3' to 5')”, for which, in series [2], the “mouse GPR40-GFP expression amount” value is recorded as “lower GPR40-GFP expression amount”.
